Test results taken from patent US8067439B2, “Biphenyl compounds useful as muscarinic receptor antagonists” (Theravance, Inc., priority 2004, dated 2011).

Biological target: T1, M3 muscarinic receptor subtype (hM3) (Homo sapiens, UniProt P20309)
T1 construct: expressed in transfected cells
Assay: Radioligand binding assay ([3H]-NMS displacement, CHO cell membranes)
Details: [3H]-NMS 1 nM
Experimental: CHO cell lines stably expressing cloned human hM1, hM2, hM3 and hM4 muscarinic receptor subtypes, respectively, were grown to near confluency in medium consisting of HAM's F-12 supplemented with 10% FBS and 250 μg/mL Geneticin. The cells were grown in a 5% CO2, 37° C. incubator and lifted with 2 mM EDTA in dPBS. Cells were collected by 5 minute centrifugation at 650×g, and cell pellets were either stored frozen at −80° C. or membranes were prepared immediately. For membrane preparation, cell pellets were resuspended in lysis buffer and homogenized with a Polytron PT-2100 tissue disrupter (Kinematica AG; 20 seconds×2 bursts). Crude membranes were centrifuged at 40,000×g for 15 minutes at 4° C. […] The protein concentration of the membrane suspension was determined by the method described in Lowry, O. et al., Journal of Biochemistry 193:265 (1951). […]
Radioligand binding assays were performed in 96-well microtiter plates in a total assay volume of 100 μL. […] Filter plates were rinsed three times with wash buffer (10 mM HEPES) to remove unbound radioactivity. […] The plates were then counted in a PerkinElmer Topcount liquid scintillation counter (PerkinElmer Inc., Wellesley, Mass.). Binding data were analyzed by nonlinear regression analysis with the GraphPad Prism Software package (GraphPad Software, Inc., San Diego, Calif.) using the one-site competition model. […]

T1 sequence (P20309 whole entry): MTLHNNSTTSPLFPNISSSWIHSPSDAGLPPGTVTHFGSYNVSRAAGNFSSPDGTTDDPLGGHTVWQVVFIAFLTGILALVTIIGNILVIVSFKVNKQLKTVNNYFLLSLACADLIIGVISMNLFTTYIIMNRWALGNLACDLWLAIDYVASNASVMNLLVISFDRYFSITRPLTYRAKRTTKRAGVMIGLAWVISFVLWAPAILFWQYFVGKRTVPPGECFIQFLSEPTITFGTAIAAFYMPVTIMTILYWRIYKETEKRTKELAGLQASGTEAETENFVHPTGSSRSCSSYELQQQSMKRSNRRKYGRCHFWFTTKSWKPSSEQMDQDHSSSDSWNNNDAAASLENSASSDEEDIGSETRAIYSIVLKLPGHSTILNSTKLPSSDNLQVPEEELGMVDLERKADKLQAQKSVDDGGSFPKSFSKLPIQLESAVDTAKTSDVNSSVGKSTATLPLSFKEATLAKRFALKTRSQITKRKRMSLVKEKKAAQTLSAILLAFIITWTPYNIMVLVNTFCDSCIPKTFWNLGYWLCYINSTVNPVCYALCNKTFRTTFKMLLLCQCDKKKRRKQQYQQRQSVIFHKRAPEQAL

- Ki: < 5 nM
SMILES: CN(CCN1CCC(OC(=O)Nc2ccccc2-c2ccccc2)CC1)C(=O)CCCCCN1CCC(C(N)=O)CC1 [Example 1, Biphenyl-2-ylcarbamic Acid 1-(2-{[6-(4-Carbamoylpiperidin-1-yl)hexanoyl]methylamino}ethyl)piperidin-4-yl Ester]
